Values joined by “and” are separate entries in the source; they are usually repeats but may differ in a detail not shown here. Equal values may be shown once.
System: 786-0 complex spheroids with HUVEC/MSC, growth % test/control
Assay: Anticancer human tumor 786-0 cell line growth inhibition [AhR];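 also: compound exposure lasted seven days before the read-out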
Conditions: for viability, T/C: stronger effect = lower value
In short: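 Complex tumor spheroids co-cultured with HUVEC and human MSC stroma; AhR antagonists tested in combination with standard-of-care and investigational agents. Top concentration at or near clinical Cmax (else 10 microM), half-log dilutions; growth expressed as percent test/control.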

[1] = curve of first compound, second compound 0.1 µM
[2] = curve of first compound, second compound 0.316 µM
[3] = curve of first compound, second compound 1 µM
[4] = curve of first compound, second compound 3.16 µM
[5] = curve of first compound, second compound 10 µM
[6] = second compound 0.1 µM, first compound 0.0316 µM
[7] = second compound 0.1 µM, first compound 0.1 µM
[8] = second compound 0.1 µM, first compound 0.316 µM
[9] = second compound 0.1 µM, first compound 1 µM
[10] = second compound 0.316 µM, first compound 0.0316 µM
[11] = second compound 0.316 µM, first compound 0.1 µM
[12] = second compound 0.316 µM, first compound 0.316 µM
[13] = second compound 0.316 µM, first compound 1 µM
[14] = second compound 1 µM, first compound 0.0316 µM
[15] = second compound 1 µM, first compound 0.1 µM
[16] = second compound 1 µM, first compound 0.316 µM
[17] = second compound 1 µM, first compound 1 µM
[18] = second compound 3.16 µM, first compound 0.0316 µM
[19] = second compound 3.16 µM, first compound 0.1 µM
[20] = second compound 3.16 µM, first compound 0.316 µM
[21] = second compound 3.16 µM, first compound 1 µM
[22] = second compound 10 µM, first compound 0.0316 µM
[23] = second compound 10 µM, first compound 0.1 µM
[24] = second compound 10 µM, first compound 0.316 µM
[25] = second compound 10 µM, first compound 1 µM

`CC1COCCN1c1cc(-c2ccnn2C)c2ccnc(-c3ccn[nH]3)c2n1` (configuration not stated) + Cc1ccccc1N=Nc1ccc(NC(=O)c2ccnn2C)c(C)c1 was tested, and the IC50 [1] was 0.196 µM, the IC50 [2] was 0.197 µM and the IC50 [3] was 0.211 µM. The IC50 [4] was 0.177 µM, the IC50 [5] was 0.155 µM and the viability, T/C (second compound 0.1 µM, first compound 0.00316 µM) was 97.6%. The viability, T/C (second compound 0.1 µM, first compound 0.01 µM) was 108%, the viability, T/C [6] was 105% and the viability, T/C [7] was 86.9%. For the same compound, the viability, T/C [8] was 23.9%, the viability, T/C [9] was 8.22% and the viability, T/C (second compound 0.316 µM, first compound 0.00316 µM) was 107%. It also gave a viability, T/C (second compound 0.316 µM, first compound 0.01 µM) of 109%, a viability, T/C [10] of 108% and a viability, T/C [11] of 86.2%. For the same compound, the viability, T/C [12] was 24.9%, the viability, T/C [13] was 8.15% and the viability, T/C (second compound 1 µM, first compound 0.00316 µM) was 119%. It also gave a viability, T/C (second compound 1 µM, first compound 0.01 µM) of 104%, a viability, T/C [14] of 102% and a viability, T/C [15] of 92.5%. For the same compound, the viability, T/C [16] was 26.9%, the viability, T/C [17] was 7.53% and the viability, T/C (second compound 3.16 µM, first compound 0.00316 µM) was 99.5%. For the same compound, the viability, T/C (second compound 3.16 µM, first compound 0.01 µM) was 112%, the viability, T/C [18] was 89.3% and the viability, T/C [19] was 77.7%. The viability, T/C [20] was 22.7%, the viability, T/C [21] was 10.2% and the viability, T/C (second compound 10 µM, first compound 0.00316 µM) was 96.9%. It also gave a viability, T/C (second compound 10 µM, first compound 0.01 µM) of 96.8%, a viability, T/C [22] of 96.1% and a viability, T/C [23] of 67.5%. The viability, T/C [24] was 21.2% and the viability, T/C [25] was 9.41%.
`CCN(c1cc(-c2ccc(CN3CCOCC3)cc2)cc(C(=O)NCc2c(C)cc(C)[nH]c2=O)c1C)C1CCOCC1` was tested, and the viability, T/C (compound 0.00949 µM) was 100% (2×) and 106%, the viability, T/C (compound 0.03 µM) was 98.8% and 111% and 109% and the viability, T/C (compound 0.0949 µM) was 105% and 96.5% and 96.9%. The viability, T/C (compound 0.3 µM) was 110% and 109% and 112%, the viability, T/C (compound 0.949 µM) was 110% and 109% and 102% and the viability, T/C (compound 3 µM) was 117% and 104% and 107%. For the same compound, the IC50 (curve of compound) was over 3 µM.
`O=C(C=Cn1cnc(-c2cc(C(F)(F)F)cc(C(F)(F)F)c2)n1)NNc1cnccn1` + CC(CO)NC(=O)c1cc(-c2ccc(Cl)cc2)nn(-c2cnn(C)c2)c1=O showed an IC50 [1] of 0.278 µM, an IC50 [2] of 0.251 µM and an IC50 [3] of 0.242 µM. It also gave an IC50 [4] of 0.246 µM, an IC50 [5] of 0.278 µM and a viability, T/C (second compound 0.1 µM, first compound 0.00949 µM) of 108%. For the same compound, the viability, T/C (second compound 0.1 µM, first compound 0.03 µM) was 110%, the viability, T/C (second compound 0.1 µM, first compound 0.0949 µM) was 107% and the viability, T/C (second compound 0.1 µM, first compound 0.3 µM) was 45.5%. It also gave a viability, T/C (second compound 0.1 µM, first compound 0.949 µM) of 25.7%, a viability, T/C (second compound 0.1 µM, first compound 3 µM) of 10.5% and a viability, T/C (second compound 0.316 µM, first compound 0.00949 µM) of 111%. The viability, T/C (second compound 0.316 µM, first compound 0.03 µM) was 113%, the viability, T/C (second compound 0.316 µM, first compound 0.0949 µM) was 112% and the viability, T/C (second compound 0.316 µM, first compound 0.3 µM) was 38.7%. For the same compound, the viability, T/C (second compound 0.316 µM, first compound 0.949 µM) was 28.2%, the viability, T/C (second compound 0.316 µM, first compound 3 µM) was 11% and the viability, T/C (second compound 1 µM, first compound 0.00949 µM) was 105%. It also gave a viability, T/C (second compound 1 µM, first compound 0.03 µM) of 115%, a viability, T/C (second compound 1 µM, first compound 0.0949 µM) of 113% and a viability, T/C (second compound 1 µM, first compound 0.3 µM) of 36%. It also gave a viability, T/C (second compound 1 µM, first compound 0.949 µM) of 24.5%, a viability, T/C (second compound 1 µM, first compound 3 µM) of 9.93% and a viability, T/C (second compound 3.16 µM, first compound 0.00949 µM) of 110%. It also gave a viability, T/C (second compound 3.16 µM, first compound 0.03 µM) of 116%, a viability, T/C (second compound 3.16 µM, first compound 0.0949 µM) of 106% and a viability, T/C (second compound 3.16 µM, first compound 0.3 µM) of 37.9%. It also gave a viability, T/C (second compound 3.16 µM, first compound 0.949 µM) of 22.9%, a viability, T/C (second compound 3.16 µM, first compound 3 µM) of 9.29% and a viability, T/C (second compound 10 µM, first compound 0.00949 µM) of 119%. It also gave a viability, T/C (second compound 10 µM, first compound 0.03 µM) of 122%, a viability, T/C (second compound 10 µM, first compound 0.0949 µM) of 107% and a viability, T/C (second compound 10 µM, first compound 0.3 µM) of 44.8%. For the same compound, the viability, T/C (second compound 10 µM, first compound 0.949 µM) was 23.6% and the viability, T/C (second compound 10 µM, first compound 3 µM) was 10.6%.
`COc1cccc2c1C(=O)c1c(O)c3c(c(O)c1C2=O)CC(O)(C(=O)CO)CC3OC1CC(N)C(O)C(C)O1` (configuration not stated) + Cc1cncc(-c2nc(NCCc3c[nH]c4ccccc34)c3ncn(C(C)C)c3n2)c1 showed an IC50 [1] of 0.158 µM, an IC50 [2] of 0.145 µM and an IC50 [3] of 0.133 µM. It also gave an IC50 [4] of under 0.0316 µM, an IC50 [5] of under 0.0316 µM and a viability, T/C [6] of 82.8%. The viability, T/C [7] was 63.1%, the viability, T/C [8] was 30.3% and the viability, T/C [9] was 8.19%. The viability, T/C (second compound 0.1 µM, first compound 3.16 µM) was 0.99%, the viability, T/C (second compound 0.1 µM, first compound 10 µM) was 0.52% and the viability, T/C [10] was 90%. It also gave a viability, T/C [11] of 61.4%, a viability, T/C [12] of 25.7% and a viability, T/C [13] of 7.63%. The viability, T/C (second compound 0.316 µM, first compound 3.16 µM) was 0.45%, the viability, T/C (second compound 0.316 µM, first compound 10 µM) was 0.37% and the viability, T/C [14] was 62.5%. For the same compound, the viability, T/C [15] was 60.2%, the viability, T/C [16] was 21.3% and the viability, T/C [17] was 5.04%. The viability, T/C (second compound 1 µM, first compound 3.16 µM) was 0.27%, the viability, T/C (second compound 1 µM, first compound 10 µM) was 0.34% and the viability, T/C [18] was 39.4%. It also gave a viability, T/C [19] of 25.2%, a viability, T/C [20] of 7.66% and a viability, T/C [21] of 2.14%. It also gave a viability, T/C (second compound 3.16 µM, first compound 3.16 µM) of 0.12%, a viability, T/C (second compound 3.16 µM, first compound 10 µM) of 0.3% and a viability, T/C [22] of 1.2%. For the same compound, the viability, T/C [23] was 0.79%, the viability, T/C [24] was 1.52% and the viability, T/C [25] was 0.23%. The viability, T/C (second compound 10 µM, first compound 3.16 µM) was 0.21% and the viability, T/C (second compound 10 µM, first compound 10 µM) was 1.26%.

Reference: PubChem BioAssay AID1919003 (Molecular Pharmacology Branch, DTP, NCI, 2023)
